ChEMBL document CHEMBL3286163, “The pterocarpanquinone LQB-118 inhibits tumor cell proliferation by downregulation of c-Myc and cyclins D1 and B1 mRNA and upregulation of p21 cell cycle inhibitor expression” (Bioorg Med Chem, 2014)
In brackets after ≈: the same amount, converted by molar mass. Activity calls are given as the source filed them. The rule behind the calls is not given here.

Assays:
Thymocyte = assay: Induction of apoptosis in mouse thymocytes assessed as internucleosomal DNA fragmentation at 1 uM after 24 hrs by agarose gel electrophoresis; format: functional, cell-based
PC-3 [1] = assay: Induction of apoptosis in human PC3 cells assessed as proportion of late apoptotic cells at 1.7 ug/ml after 48 hrs by annexin-V-FITC/propidium iodide staining based flow cytometry (reference value: 6.6 +/- 1.2%); format: functional
PC-3 [2] = assay: Decrease in cyclin B1 mRNA expression in human PC3 cells after 48 hrs by RT-PCR analysis; format: functional
PC-3 [3] = assay: Induction of apoptosis in human PC3 cells assessed as proportion of late apoptotic cells at 5 ug/ml after 48 hrs by annexin-V-FITC/propidium iodide staining based flow cytometry (reference value: 6.6 +/- 1.2%); format: functional
PC-3 [4] = assay: Cell cycle arrest in human PC3 cells assessed as cell accumulation at G1 phase at 1.7 ug/ml after 48 hrs by propidium idoide staining based flow cytometry (reference value: 68%); format: functional
PC-3 [5] = assay: Cell cycle arrest in human PC3 cells assessed as cell accumulation at G2/M phase at 1.7 ug/ml after 48 hrs by propidium idoide staining based flow cytometry (reference value: 22.2%); format: functional
PC-3 [6] = assay: Induction of apoptosis in human PC3 cells assessed as proportion of early apoptotic cells at 1.7 ug/ml after 48 hrs by annexin-V-FITC/propidium iodide staining based flow cytometry (reference value: 6.7 +/- 2%); format: functional
PC-3 [7] = assay: Induction of apoptosis in human PC3 cells assessed as proportion of early apoptotic cells at 5 ug/ml after 48 hrs by annexin-V-FITC/propidium iodide staining based flow cytometry (reference value: 6.7 +/- 2%); format: functional
PC-3 [8] = assay: Induction of apoptosis in human PC3 cells assessed as proportion of necrotic cells at 5 ug/ml after 48 hrs by annexin-V-FITC/propidium iodide staining based flow cytometry (reference value: 0.8 +/- 0.9%); format: functional
PC-3 [9] = assay: Cell cycle arrest in human PC3 cells assessed as cell accumulation at G1 phase at 5 ug/ml after 48 hrs by propidium idoide staining based flow cytometry (reference value: 68%); format: functional
PC-3 [10] = assay: Cytotoxicity against human PC3 cells assessed as inhibition of cell viability after 48 hrs by MTT assay; format: functional, cell-based; settings: for IC50: PC-3, 48 h
PC-3 [11] = assay: Cell cycle arrest in human PC3 cells assessed as cell accumulation at G2/M phase at 5 ug/ml after 48 hrs by propidium idoide staining based flow cytometry (reference value: 22.2%); format: functional
PC-3 [12] = assay: Cell cycle arrest in human PC3 cells assessed as cell accumulation at S phase at 1.7 ug/ml after 48 hrs by propidium idoide staining based flow cytometry (reference value: 9.8%); format: functional
PC-3 [13] = assay: Decrease in cyclin D1 mRNA expression in human PC3 cells after 48 hrs by RT-PCR analysis; format: functional
PC-3 [14] = assay: Increase in p21 mRNA expression in human PC3 cells at 5 ug/ml after 24 to 48 hrs by RT-PCR analysis; format: functional, cell-based
PC-3 [15] = assay: Increase in p21 protein expression in human PC3 cells at 5 ug/ml after 48 hrs by flow cytometry; format: functional, cell-based
PC-3 [16] = assay: Induction of apoptosis in human PC3 cells assessed as internucleosomal DNA fragmentation at 5 ug/ml after 48 hrs by agarose gel electrophoresis; format: functional, cell-based
PC-3 [17] = assay: Induction of apoptosis in human PC3 cells assessed as proportion of necrotic cells at 1.7 ug/ml after 48 hrs by annexin-V-FITC/propidium iodide staining based flow cytometry (reference value: 0.8 +/- 0.9%); format: functional
PC-3 [18] = assay: Cell cycle arrest in human PC3 cells assessed as cell accumulation at S phase at 5 ug/ml after 48 hrs by propidium idoide staining based flow cytometry (reference value: 9.8%); format: functional
LNCaP = assay: Cytotoxicity against human LNCAP cells assessed as inhibition of cell viability after 48 hrs by MTT assay; format: functional, cell-based
PC-3 [19] = assay: Increase in c-Myc mRNA expression in human PC3 cells after 48 hrs by RT-PCR analysis; format: functional
[20] = Cytotoxicity against human RWPE1 cells assessed as inhibition of cell viability after 48 hrs by MTT assay; format: cell-based, RWPE-1; settings: for IC50: Homo sapiens, RWPE-1, 48 h
PC-3 [21] = assay: Decrease in c-Myc mRNA expression in human PC3 cells after 48 hrs by RT-PCR analysis; format: functional
PC-3 [22] = assay: Antiproliferative activity against human PC3 cells assessed as inhibition of cell growth at 5 ug/ml after 48 hrs by trypan blue dye exclusion assay; format: functional; settings: PC-3, 48 h, read-out: GI
PC-3 [23] = assay: Decrease in cyclin D1 mRNA expression in human PC3 cells after 24 hrs by RT-PCR analysis; format: functional
PC-3 [24] = assay: Cytotoxicity against human PC3 cells assessed as inhibition of cell viability at 10 ug/ml after 48 hrs by MTT assay; format: functional; settings: PC-3, 48 h
PC-3 [25] = assay: Antiproliferative activity against human PC3 cells assessed as inhibition of cell growth at 1.7 ug/ml after 24 hrs by trypan blue dye exclusion assay; format: functional; settings: PC-3, 24 h, read-out: GI
PC-3 [26] = assay: Cytotoxicity against human PC3 cells assessed as inhibition of cell viability at 1 ug/ml after 48 hrs by MTT assay; format: functional; settings: PC-3, 48 h
PC-3 [27] = assay: Antiproliferative activity against human PC3 cells assessed as inhibition of cell growth at 1.7 ug/ml after 48 hrs by trypan blue dye exclusion assay; format: functional; settings: PC-3, 48 h, read-out: GI
PC-3 [28] = assay: Antiproliferative activity against human PC3 cells assessed as inhibition of cell growth at 5 ug/ml after 72 hrs by trypan blue dye exclusion assay; format: functional; settings: PC-3, 72 h, read-out: GI
PC-3 [29] = assay: Antiproliferative activity against human PC3 cells assessed as inhibition of cell growth at 5 ug/ml after 24 hrs by trypan blue dye exclusion assay; format: functional; settings: PC-3, 24 h, read-out: GI
[30] = Cytotoxicity against human RWPE1 cells assessed as inhibition of cell viability at 2.5 ug/ml after 48 hrs by MTT assay; format: cell-based; settings: rwpe-1, 48 h
PC-3 [31] = assay: Decrease in cyclin B1 mRNA expression in human PC3 cells after 24 hrs by RT-PCR analysis; format: functional
PC-3 [32] = assay: Antiproliferative activity against human PC3 cells assessed as inhibition of cell growth at 1.7 ug/ml after 72 hrs by trypan blue dye exclusion assay; format: functional; settings: PC-3, 72 h, read-out: GI
PC-3 [33] = assay: Increase in p21 protein expression in human PC3 cells at 5 ug/ml after 24 to 48 hrs by flow cytometry; format: functional, cell-based

Compound	Activity (PC-3 [1]) [%]	inhibition (INH) (PC-3 [2]) [%]	Activity (PC-3 [3]) [%]	Activity (PC-3 [4]) [%]	Activity (PC-3 [5]) [%]	Activity (PC-3 [6]) [%]	Activity (PC-3 [7]) [%]	Activity (PC-3 [8]) [%]	Activity (PC-3 [9]) [%]	IC50 (PC-3 [10]) [µg/mL]	Activity (PC-3 [11]) [%]	Activity (PC-3 [12]) [%]	inhibition (INH) (PC-3 [13]) [%]	Activity (PC-3 [14])	Activity (PC-3 [16])	Activity (PC-3 [17]) [%]	Activity (PC-3 [18]) [%]	IC50 (LNCaP) [µg/mL]	IC50 [20] [µg/mL]	other results
C[C@@H]1C[C@H]2[C@@H]3CCC4=CC(=O)C=C[C@]4(C)[C@@]3(F)[C@@H](O)C[C@]2(C)[C@@]1(O)C(=O)CO																				Activity (Thymocyte): Active
CC(=O)O[C@H]1C(=O)[C@@]2(C)[C@H]([C@H](OC(=O)c3ccccc3)[C@]3(O)C[C@H](OC(=O)[C@H](O)[C@@H](NC(=O)c4ccccc4)c4ccccc4)C(C)=C1C3(C)C)[C@]1(OC(C)=O)CO[C@@H]1C[C@@H]2O [PACLITAXEL]	14.7	44	18.4	25	62	21.1	18.1	1.9	15	2.9 (≈ 3.4 µM)	79.2	13	48	Active	Active	0.6	5.8	1.7 (≈ 1.99 µM)	0.7 (≈ 0.82 µM)	Activity (PC-3 [15]): Active; Activity (PC-3 [19]): 39%
O=C1C2=C(C(=O)c3ccccc31)[C@H]1Oc3ccccc3[C@H]1CO2 [PTEROCARPANQUINONE]	5.7	43	17.8	51.8	35	7.7	48.3	1.6	34.1	1.7 (≈ 5.59 µM)	43.4	13.2	59	Active	Active	0.6	22.5	1.1 (≈ 3.61 µM)	1.3 (≈ 4.27 µM)	inhibition (INH) (PC-3 [21]): 60%; inhibition of growth at 5 µg/mL (PC-3 [22]): 88%; inhibition (INH) (PC-3 [23]): 27%; inhibition at 10 µg/mL (PC-3 [24]): 92.7%; inhibition of growth at 1.7 µg/mL (PC-3 [25]): 60%; inhibition at 1 µg/mL (PC-3 [26]): 12.8%; inhibition of growth at 1.7 µg/mL (PC-3 [27]): 68%; inhibition of growth at 5 µg/mL (PC-3 [28]): 93%; inhibition of growth at 5 µg/mL (PC-3 [29]): 78%; Activity [30]: Non-toxic; inhibition (PC-3 [10]): Dose-dependent effect; inhibition (INH) (PC-3 [31]): 58%; inhibition of growth at 1.7 µg/mL (PC-3 [32]): 60%; Activity (PC-3 [33]): Active; inhibition (INH) ([20]; human, rwpe-1, 48 h): Dose-dependent effect
